Measured values reported in article PMC6934184, “Selective DNA-PKcs inhibition extends the therapeutic index of localized radiotherapy and chemotherapy” (The Journal of Clinical Investigation, 2019).

Target: T1, STK22D (TSSK1) (Homo sapiens, UniProt Q9BXA7)
T1 construct: purchased Thermo Fisher Scientific (Life Technologies) SelectScreen
Assay: SelectScreen Z'LYTE
Assay type: biochemical
How it was run: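 NU5455 was profiled across the SelectScreen Broad panel of kinase activity and binding assays. Z'LYTE reactions such as CSF1R ran at apparent Km ATP, while the Adapta CAMK1 assay used ATP listed as 10. Values are given as percent.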

T1 sequence (Q9BXA7 whole entry): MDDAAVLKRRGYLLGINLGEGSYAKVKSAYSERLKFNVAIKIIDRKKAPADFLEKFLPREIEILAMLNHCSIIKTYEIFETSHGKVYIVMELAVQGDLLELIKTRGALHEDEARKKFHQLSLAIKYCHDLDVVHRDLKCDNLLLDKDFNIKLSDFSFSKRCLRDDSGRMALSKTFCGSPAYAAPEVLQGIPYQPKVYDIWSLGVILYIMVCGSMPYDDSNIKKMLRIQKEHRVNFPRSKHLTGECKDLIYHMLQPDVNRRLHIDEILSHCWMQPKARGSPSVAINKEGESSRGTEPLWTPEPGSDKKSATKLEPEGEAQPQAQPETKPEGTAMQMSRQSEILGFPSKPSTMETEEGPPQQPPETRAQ

Question: For `CN(C(=O)CN1CCOCC1)c1ccc2sc3c(-c4cccc5c(=O)cc(N6CC7CCC(C6)O7)oc45)cccc3c2c1` [NU5455], which inhibition at 1 µM is on record?
Answer: 4.2%
